Assay results published in patent US20220144812A1, “QUINOLINE DERIVATIVES AND THEIR USE FOR THE TREATMENT OF CANCER” (Epizyme, Inc., priority 2019, published 2022).
Where two headings read alike, the source gives them in different places.

What was measured:
[1] = tested on: H3K18Ac in HB-CLS-2 cells; test: H3K18AC in-cell western (ICW) assay; type: cell-based; details: H3K18Ac in-cell western, read-out: CREBBP ICW IC50
Summary of the method: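 In-cell western: after methanol fixation, blocking, overnight 4° C anti-H3K18Ac staining, then 800CW secondary plus DRAQ5 for DNA content, integrated intensities were scanned at 800 and 700 nm. Before this, compound exposure lasted 2 hr at 37° C in HB-CLS-2 cells plated 16–24 hours earlier. Values expressed as IC50 (μM).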

647V cells = test: High throughput proliferation (HTP) assay; type: cell-based; details: high throughput proliferation, read-out: CREBBP HTP IC50
Text: The following example describes methods and materials relating to a high throughput proliferation (HTP) assay. IC50 values (micromolar) are summarized in Table 1, Table 2, and Table 3 under the column labeled: “CREBBP HTP IC50 (micromolar).”
MATERIALS: 647V cell line, Dulbecco's MEM, penicillin-streptomycin, heat inactivated fetal bovine serum, D-PBS, and CellTiter-Glo were commercially available.
647V adherent cells were maintained in complete growth medium (Dulbecco's MEM supplemented with 15% v/v heat inactivated fetal bovine serum) and cultured at 37° C. under 5% CO2.
METHOD: Measurement of the effect of compound in High Throughput Proliferation (HTP) assays was performed as follows: Exponentially growing 647V cells were plated, in triplicate, in 384-well plates at the appropriate cell density in a final volume of 50 μl. Cells were incubated in the presence of increasing concentrations of compound. Viable cell number was determined at day 7 by addition of 35 μl CellTiter-Glo to each well of the plate, incubated in the dark for 30 minutes, and read on a PerkinElmer EnVision instrument to enumerate the number of cells.

CREBBP (1084-1701) = target: T1, CREBBP (1084-1701) (Homo sapiens, UniProt Q92793); test: Biochemical assay for CREBBP (1084-1701), SAMDI; details: SAMDI, read-out: CREBBP Biochemistry IC50
T1 construct: measured in the following biochemical assay using CREBBP (1084-1701); purchased
Summary of the method: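 Acetyltransferase activity measured by SAMDI mass spectrometry after capture on biochip. Enzyme sat with compound 30 min at RT before acetyl-CoA and biotinylated H3 11-25 (K14R, K23R) peptide were added for 30 min at RT. Formic acid quench, bicarbonate neutralisation; IC50 values reported.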

EP300 (P300(1048-1664)) = target: T2, EP300 (P300(1048-1664)) (Homo sapiens, UniProt Q09472); test: Biochemical assay for EP300, SAMDI; details: EP300, SAMDI; read-out: EP300 Biochemistry IC50
T2 construct: P300(1048-1664)
T2 sequence (Q09472 1048-1664): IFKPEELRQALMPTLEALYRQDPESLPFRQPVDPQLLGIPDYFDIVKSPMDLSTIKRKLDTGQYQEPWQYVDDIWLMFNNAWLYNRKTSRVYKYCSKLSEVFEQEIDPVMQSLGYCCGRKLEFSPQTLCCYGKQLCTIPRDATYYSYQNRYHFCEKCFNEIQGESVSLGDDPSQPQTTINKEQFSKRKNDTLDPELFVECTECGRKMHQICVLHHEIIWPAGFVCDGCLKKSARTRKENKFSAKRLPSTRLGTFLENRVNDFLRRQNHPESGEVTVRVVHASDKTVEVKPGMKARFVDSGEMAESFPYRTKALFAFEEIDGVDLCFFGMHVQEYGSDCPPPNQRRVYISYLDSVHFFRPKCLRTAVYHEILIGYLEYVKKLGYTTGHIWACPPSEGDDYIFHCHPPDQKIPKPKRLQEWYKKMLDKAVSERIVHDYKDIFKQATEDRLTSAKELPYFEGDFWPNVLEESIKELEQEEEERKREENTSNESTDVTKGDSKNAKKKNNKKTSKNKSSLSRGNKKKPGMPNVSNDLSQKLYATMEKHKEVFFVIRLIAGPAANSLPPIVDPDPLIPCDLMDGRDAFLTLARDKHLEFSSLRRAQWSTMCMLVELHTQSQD
Text: The following example describes materials and methods relating to a biochemical assay for EP300. IC50 values (micromolar (μM)) are summarized in Table 1, Table 2, and Table 3 under the column labeled: “EP300 Biochemistry IC50 (micromolar).”

[2] = Homo sapiens, 647-V, 647V cells

T1 sequence (Q92793 1084-1701): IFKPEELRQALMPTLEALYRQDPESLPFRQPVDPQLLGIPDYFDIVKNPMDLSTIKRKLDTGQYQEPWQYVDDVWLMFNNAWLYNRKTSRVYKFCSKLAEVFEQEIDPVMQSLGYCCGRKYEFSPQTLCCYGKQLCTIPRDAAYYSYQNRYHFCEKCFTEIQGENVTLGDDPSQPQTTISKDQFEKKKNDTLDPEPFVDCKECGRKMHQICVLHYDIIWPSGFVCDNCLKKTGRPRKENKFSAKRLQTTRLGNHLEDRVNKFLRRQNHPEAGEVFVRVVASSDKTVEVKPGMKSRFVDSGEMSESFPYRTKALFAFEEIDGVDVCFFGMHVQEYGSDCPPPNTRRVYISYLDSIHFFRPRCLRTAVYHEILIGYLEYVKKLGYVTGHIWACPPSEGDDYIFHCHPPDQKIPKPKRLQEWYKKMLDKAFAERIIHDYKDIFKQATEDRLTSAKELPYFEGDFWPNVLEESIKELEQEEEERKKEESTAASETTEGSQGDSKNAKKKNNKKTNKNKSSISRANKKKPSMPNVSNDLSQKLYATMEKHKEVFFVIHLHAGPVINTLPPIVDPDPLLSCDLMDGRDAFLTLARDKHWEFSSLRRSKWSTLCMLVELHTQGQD

Structure (SMILES) | IC50 [1] [nM] | IC50 (647V cells; Homo sapiens, 647-V) [nM] | IC50 (CREBBP (1084-1701)) [nM] | IC50 (EP300 (P300(1048-1664))) [nM] | IC50 (647V cells) [nM] | IC50 ([1]; HB-CLS-2 cells) [nM] | IC50 (647V cells; 647V cells) [nM] | IC50 (647V cells; [2]) [nM]
CCn1ncc(CN(C)C(=O)c2nc(-c3cc4c(C)[nH]nc4cc3Cl)nc3ccc(Cl)cc23)c1C [Compound 1] | 27 | 20 | 3.3 | 2.1 |  |  |  | 
CCn1ncc(CN(C)C(=O)c2nc(-c3ccc(OCCCNC)c(C)c3Cl)nc3ccc(Cl)cc23)c1C [Compound 2] | 34 | 17 | 22 | 5 |  |  |  | 
CCn1ncc(CN(C)C(=O)c2nc(-c3cc(Cl)c4nc[nH]c4c3)nc3ccc(COC)cc23)c1C [Compound 4] | 57 | 37 | 12 | 3.7 |  |  |  | 
CCn1ncc(CN(C)C(=O)c2nc(-c3cc(NCCNC)cc(OC)c3)nc3ccc(Cl)cc23)c1C [Compound 5] | 60 | 35 | 16 | 11 |  |  |  | 
CCn1ncc(CN(C)C(=O)c2nc(-c3cc4n[nH]cc4cc3Cl)nc3ccc(Cl)cc23)c1C [Compound 7] | 77 | 66 | 9.5 | 5.3 |  |  |  | 
CCn1ncc(CN(C)C(=O)c2nc(-c3cc(C)nc(NCCNC)c3)nc3ccc(Cl)cc23)c1C [Compound 8] | 78 | 42 | 33 | 26 |  |  |  | 
CCn1ncc(CN(C)C(=O)c2nc(-c3cc(C#N)cc(NCCNC)c3)nc3ccc(Cl)cc23)c1C [Compound 9] | 90 | 51 | 15 | 11 |  |  |  | 
CCn1ncc(CN(C)C(=O)c2nc(-c3cc4[nH]ncc4cc3C)nc3ccc(Cl)cc23)c1C [Compound 10] | 93 | 77 | 22 | 8.4 |  |  |  | 
CCn1ncc(CN(C)C(=O)c2nc(-c3cc(Cl)cc(NCCNC)c3)nc3ccc(Cl)cc23)c1C [Compound 12] | 110 | 32 | 13 | 3.5 |  |  |  | 
CCn1ncc(CN(C)C(=O)c2nc(-c3cc(C)cc(NC(=O)CNC)c3)nc3ccc(Cl)cc23)c1C [Compound 13] | 120 | 110 | 10 | 7.7 |  |  |  | 
CCn1ncc(CN(C)C(=O)c2nc(-c3cc(Cl)cc(NCCNC)c3)nc3ccc(Cl)cc23)c1C [Compound 14] | 140 |  | 14 | 2.9 | 39 |  |  | 
CCn1ncc(CN(C)C(=O)c2nc(-c3ccc(OCC(O)CN4CCCC4)cc3Cl)nc3ccc(Cl)cc23)c1C (stereo not shown) [Compound 15] | 150 | 64 | 28 | 12 |  |  |  | 
CCn1ncc(CN(C)C(=O)c2nc(-c3cc(N)cc(Cl)c3)nc3ccc(Cl)cc23)c1C [Compound 16] | 150 | 160 | 4.6 | 7.4 |  |  |  | 
CCn1ncc(CN(C)C(=O)c2nc(-c3cc4[nH]cnc4cc3C)nc3ccc(Cl)cc23)c1C [Compound 17] | 170 | 130 | 60 | 120 |  |  |  | 
CCn1ncc(CN(C)C(=O)c2nc(-c3cc(C(=O)NC)n(C)n3)nc3ccc(Cl)cc23)c1C [Compound 18] | 170 | 220 | 23 | 10 |  |  |  | 
CCn1ncc(CN(C)C(=O)c2nc(-c3ccc(OCC(O)CNC)cc3Cl)nc3ccc(Cl)cc23)c1C (stereo not shown) [Compound 20] | 180 | 71 | 27 | 10 |  |  |  | 
CCn1ncc(CN(C)C(=O)c2nc(-c3ccc(OCCNC)c(Cl)c3)nc3ccc(Cl)cc23)c1C [Compound 21] | 180 | 120 | 31 | 48 |  |  |  | 
CCn1ncc(CN(C)C(=O)c2nc(-c3cc(Cl)c4c[nH]nc4c3)nc3ccc(COC)cc23)c1C [Compound 22] | 180 | 210 | 14 | 14 |  |  |  | 
CCn1ncc(CN(C)C(=O)c2nc(-c3ccc(OCCNC)cc3Cl)nc3ccc(Cl)cc23)c1C [Compound 23] | 190 | 82 | 46 | 50 |  |  |  | 

Structure (SMILES) | IC50 [1] [nM] | IC50 (647V cells; Homo sapiens, 647-V) [nM] | IC50 (CREBBP (1084-1701)) [nM] | IC50 (EP300 (P300(1048-1664))) [nM] | IC50 (647V cells) [nM] | IC50 ([1]; HB-CLS-2 cells) [nM] | IC50 (647V cells; 647V cells) [nM] | IC50 (647V cells; [2]) [nM]
CCn1ncc(CN(C)C(=O)c2nc(-c3ccc(OCCCN(C)C(=O)OC(C)(C)C)c(C)c3)nc3ccc(Cl)cc23)c1C [Compound 183] |  |  | 18000 | 42000 | 8700 |  |  | 
CCn1ncc(CN(C)C(=O)c2nc(-c3ccn(CCCN4CCCC4)n3)nc3ccc(Cl)cc23)c1C [Compound 184] |  |  |  | 163000 | 15000 |  |  | 
CCn1ncc(CN(C)C(=O)c2nc(N3CCn4ncnc4C3)nc3ccc(Cl)cc23)c1C [Compound 190] | 20000 | 20000 |  | 103000 |  |  |  | 
CCn1ncc(CN(C)C(=O)c2nc(-c3cccc(Cl)c3)nc3cc(N4CCOCC4)c(Cl)cc23)c1C [Compound 200] |  |  | 190000 | 126000 |  | 20000 |  | 
CCn1ncc(CN(C)C(=O)c2nc(N3CCNCC3)nc3ccc(Cl)cc23)c1C [Compound 202] |  |  |  | 175000 |  | 20000 |  | 
CCn1ncc(CN(C)C(=O)c2nc(-c3ccccc3Cl)nc3c(C#N)cccc23)c1C [Compound 211] |  |  | 32000 | 17000 |  |  | 15000 | 
CCn1ncc(CN(C)C(=O)c2nc(-c3cc(C(=O)NC)on3)nc3ccc(Cl)cc23)c1C [Compound 215] |  |  |  | 41000 |  | 20000 |  | 
CCn1ncc(CN(C)C(=O)c2nc(-c3cn(CCNC)cn3)nc3ccc(Cl)cc23)c1C [Compound 228] |  |  |  | 140000 |  | 20000 |  | 20000
Cc1c(CN(C)C(=O)c2nc(-c3cc(Cl)cc(CNC4CCCCC4)c3)nc3ccc(Cl)cc23)cnn1CO [Compound 236] |  |  |  | 13000 |  | 20000 |  | 
CCn1ncc(CN(C)C(=O)c2nc(-c3cnc(CNC(C)=O)n3C)nc3ccc(Cl)cc23)c1C [Compound 237] |  |  |  | 50000 |  |  |  | 
CCn1ncc(CN(C)C(=O)c2nc(-c3cn(CCCNC)cn3)nc3ccc(Cl)cc23)c1C [Compound 247] |  |  |  | 157000 |  | 20000 |  | 20000
Cc1n[nH]c(C)c1CN(C)C(=O)c1nc(-c2cccc(Cl)c2)nc2ccc(Cl)cc12 [Compound 248] |  |  |  | 114000 |  | 20000 |  | 19000
CCn1ncc(CN(C)C(=O)c2cc(-c3cnn[nH]3)nc3ccc(Cl)cc23)c1C [Compound 307] |  |  |  | 8000 |  |  |  | 
CCn1ncc(CN(C)C(=O)c2nc(-c3cc(C(=O)NC)nn3C)nc3ccc(P(C)(C)=O)cc23)c1C [Compound 393] |  |  | 50000 | 50000 |  |  | 8600 | 
CCn1ncc(CN(C)C(=O)c2cc(-c3cc(C)nc(C)n3)nc3ccc(Cl)cc23)c1C [Compound 411] |  |  | 50000 | 50000 |  |  |  | 
CCn1ncc(CN(C)C(=O)c2nc(-c3cc(C)c4cn[nH]c4c3)nc3ccc(Cl)cc23)c1C [Compound 412] |  |  |  | 130 |  | 250 |  | 150
CCn1ncc(CN(C)C(=O)c2nc(-c3ccc(OCCNC(=O)C(C)C)c(Cl)c3)nc3ccc(Cl)cc23)c1C [Compound 416] |  |  |  | 180 |  | 400 |  | 400
CCn1ncc(CN(C)C(=O)c2nc(-c3cc(C(=O)NC)n(C)n3)nc3ccc(COC)cc23)c1C [Compound 630] | 341 |  | 149 | 72 |  |  |  | 
